Results taken from patent US8999404B2, “Phaleria macrocarpa extract, extraction process and its use as cholesteryl ester transferase protein (CETP) inhibitor” (Pt. Dexa Medica, priority 2011, dated 2015).
“Also recorded” adds a separate entry of the source.

Key:
CETP gene expression = assay: Combination effect of double unsaturated fatty acid and DLBS1449 on CETP gene expression; assay type: cell-based, human; details: HepG2, 30 μM fatty acid alone, 24 hours, FIG. 8
Protocol: HepG2 cells were cultured at 6-well plate until 60% of cell density was reached. Change of medium was then performed, using serum-free medium and incubated for 24 hours. Those cells were then treated with 4 different treatments which were 30 μM of arachidonic acid, 30 μM of linoleic acid, combination of arachidonic acid with 75 μg/ml of DLBS1449 and combination of linoleic acid with 75 μg/ml of DLBS1449. These treatments were performed for 24 hours. Total RNA of HepG2 cells treated with DLBS1449 were isolated using Trizol solution according to the procedure available from the solution. Total RNA were then measured using NanoDrop machine and visualized using electrophoresis method. Further, RNA with good quality will be used to synthesize cDNA through RT-PCR process using PCR Thermocycler machine in a certain condition that has been optimized.

[1] = clinical trials, patients consuming the drug; cited from earlier work

SMILES | CETP gene expression (CETP gene expression) | patients' blood pressure [1]
CCCCC/C=C\C/C=C\C/C=C\C/C=C\CCCC(=O)O [arachidonic acid] | decrease the CETP gene expression | 
CCCCC/C=C\C/C=C\CCCCCCCC(=O)O [linoleic acid] | greater decrease | 
CCOC(=O)N1c2ccc(C(F)(F)F)cc2[C@@H](N(Cc2cc(C(F)(F)F)cc(C(F)(F)F)c2)C(=O)OC)C[C@H]1CC [torcetrapib] |  | increase of blood pressure; also recorded: increase in patients' blood pressure
